Experimental findings from ChEMBL document CHEMBL4680245, “Design, synthesis and biological evaluation of tetrahydroquinoline-based reversible LSD1 inhibitors” (Eur J Med Chem, 2020) are described below.

For orientation: IC50 means the concentration that gives 50% inhibition. The low end stands for greater potency, the high end for weaker potency.

In this assay the target is Lysine-specific histone demethylase 1A (Homo sapiens, UniProt O60341).

Description: Inhibition of human recombinant LSD1 using fluorogenic ADHP based substrate preincubated for 30 mins followed by substrate addition measured after 10 mins by horseradish peroxidase coupled fluorescence assay

Turning to `CNc1cccc(COc2ccc(CN3CCCc4cccc(NC(=O)c5cc6sccc6n5C)c43)cc2)c1`, the IC50 was more than 50000 nM.
Turning to `COc1ccc2c(c1)cc(C(=O)Nc1cccc3c1N(Cc1ccc(OC4CCNCC4)cc1)CCC3)n2C`, the IC50 was more than 50 nM.
With `O=C(Nc1cccc2c1N(Cc1ccc(OC3CCNCC3)cc1)CCC2)c1cc2ccccc2[nH]1`, the IC50 is 2.81 nM.
`O=C(Nc1cccc2c1N(Cc1ccc(OC3CCNCC3)cc1)CCC2)c1cccc2[nH]ccc12` registered an IC50 of 0.54 nM.
The compound `O=C(Nc1cccc2c1N(Cc1ccc(OC3CCNCC3)cc1)CCC2)c1ccc(C(F)(F)F)cc1` yielded an IC50 of 1.82 nM.
With `O=C(Nc1cccc2c1N(Cc1ccc(OC3CCNCC3)cc1)CCC2)c1cc2ccccc2n1CC1CC1` the figure was 2.65 nM; with `O=C(Nc1cccc2c1N(Cc1ccc(OC3CCNCC3)cc1)CCC2)c1cc2ccccc2n1CCCl`, 0.15 nM.
Compound `Cn1c(C(=O)Nc2cccc3c2N(Cc2ccc(OCc4ccc([N+](=O)[O-])cc4)cc2)CCC3)cc2sccc21` registered an IC50 of more than 50000 nM.
In turn, `CCCn1c(C(=O)Nc2cccc3c2N(Cc2ccc(OC4CCNCC4)cc2)CCC3)cc2ccccc21` yielded an IC50 of 1.52 nM.
With `Cn1c(C(=O)Nc2cccc3c2N(Cc2ccc(OCC4CCOCC4)cc2)CCC3)cc2sccc21`, half-maximal inhibition (IC50) was put at 732 nM.
Turning to `Cn1c(C(=O)Nc2cccc3c2N(Cc2ccc(OCc4ccc(N)cc4)cc2)CCC3)cc2sccc21`, the IC50 is more than 50000 nM.
As for `O=C(Nc1cccc2c1N(Cc1ccc(OC3CCNCC3)cc1)CCC2)c1cc2ccccc2n1C(F)F`, the figure is 0.39 nM; as for `Cn1nc(C(=O)Nc2cccc3c2N(Cc2ccc(OC4CCNCC4)cc2)CCC3)c2ccccc21`, 0.97 nM.
Regarding `O=C(Nc1cccc2c1N(Cc1ccc(OC3CCNCC3)cc1)CCC2)c1ccc2[nH]ccc2c1`, half-maximal inhibition (IC50) required 4.58 nM.
The compound `O=C(Nc1cccc2c1N(Cc1ccc(OC3CCNCC3)cc1)CCC2)c1ccc(C(F)(F)F)nc1` returned an IC50 of more than 50 nM.
`Cc1ccc2c(c1)cc(C(=O)Nc1cccc3c1N(Cc1ccc(OC4CCNCC4)cc1)CCC3)n2C` gave an IC50 of more than 50 nM.
`Cn1c(C(=O)Nc2cccc3c2N(Cc2ccc(OC4CCNCC4)cc2)CCC3)cc2ccc(Cl)cc21` registered an IC50 of 1.13 nM.
`Cn1c(C(=O)Nc2cccc3c2N(Cc2ccc(O[C@H]4CC[C@H](N(C)C)CC4)cc2)CCC3)cc2sccc21`: the IC50 was 36.3 nM.
Take `CN(C)c1cccc(COc2ccc(CN3CCCc4cccc(NC(=O)c5cc6sccc6n5C)c43)cc2)c1`: the half-maximal inhibitory concentration (IC50) is more than 50000 nM.
Consider `O=C(Nc1cccc2c1N(Cc1ccc(OC3CCNCC3)cc1)CCC2)c1ccc2ccccc2n1`, for which 13.1 nM corresponded to half-maximal inhibition (IC50).
As to `Cc1ccncc1C(=O)Nc1cccc2c1N(Cc1ccc(OC3CCNCC3)cc1)CCC2`, the midpoint of inhibition, the IC50, lay at 1.56 nM.
The compound `Cn1c(C(=O)Nc2cccc3c2N(Cc2ccc(OCc4ccc(C(N)=O)cc4)cc2)CCC3)cc2sccc21` showed an IC50 of more than 50000 nM.
As for `O=C(Nc1cccc2c1N(Cc1ccc(OC3CCNCC3)cc1)CCC2)c1nc2ccccc2s1`, the figure is 0.92 nM; as for `Cn1ccc2cccc(C(=O)Nc3cccc4c3N(Cc3ccc(OC5CCNCC5)cc3)CCC4)c21`, 4.44 nM.
`O=C(Nc1cccc2c1N(Cc1ccc(OC3CCNCC3)cc1)CCC2)c1cc2ccccc2s1` displayed an IC50 of 0.93 nM.
`O=C(Nc1cccc2c1N(Cc1ccc(OC3CCNCC3)cc1)CCC2)c1nc2ccccc2[nH]1` displayed an IC50 of 2.31 nM.
Compound `CN1CCC(Oc2ccc(CN3CCCc4cccc(NC(=O)c5cc6sccc6n5C)c43)cc2)CC1` had an IC50 of 38.2 nM.
With `CC(C)n1c(C(=O)Nc2cccc3c2N(Cc2ccc(OC4CCNCC4)cc2)CCC3)cc2ccccc21`, half-maximal inhibition (IC50) required 0.18 nM.
Regarding `O=C(Nc1cccc2c1N(Cc1ccc(OC3CCNCC3)cc1)CCC2)c1cc2ccccc2n1CC(F)F`, the IC50 is 0.78 nM.
Compound `Cn1c(C(=O)Nc2cccc3c2N(Cc2ccc(OC[C@H]4CCNC4)cc2)CCC3)cc2sccc21` returned an IC50 of 149 nM.
`O=C(Nc1cccc2c1N(Cc1ccc(OC3CCNCC3)cc1)CCC2)c1ccc(C(F)(F)F)cc1F` registered an IC50 of 5.12 nM.
As for `Cn1c(C(=O)Nc2cccc3c2N(Cc2ccc(OCc4ccc(C#N)cc4)cc2)CCC3)cc2sccc21`, the figure is more than 50000 nM.
